Measurements reported in US12485107B2, “Methods for the prevention or treatment of cytokine storm” (Beth Israel Deaconess Medical Center, Inc., priority 2019, dated 2025).
Entries after “also recorded” stand apart in the source; their conditions may differ.

Assays:
[1] = tested on: RAW264.7 murine macrophages; type: cell-based; settings: RFU, percent increase above vehicle-treated macrophages
[2] = tested on: RAW264.7 murine macrophages; assay: Cytokine arrays of RAW264.7 macrophages stimulated with gemcitabine-generated PancOH7 debris; type: cell-based; settings: 5 μM, 2 hours pre-treatment
Procedure: (A) Inflammatory and (B) angiogenic cytokine array of RAW264.7 murine macrophage conditioned media co-cultured with chemotherapy (gemcitabine)-generated murine pancreatic (PancOH7) tumor cell debris and pre-treated with vehicle or PTUPB (5 μM, 2 hours).
Inflammatory (FIG. 15A) and angiogenic (FIG. 15B) cytokine arrays of conditioned media from RAW264.7 macrophages treated with vehicle or PTUPB (5 uM) for 2 hours stimulated with gemcitabine-generated PancOH7 debris are shown in FIGS. 15A and 15B. “Cytokine storm” released by debris-stimulated macrophages is prevented by the dual COX-2/sEH inhibitor PTUPB.

[3] = tested on: human monocyte-derived macrophage; type: cell-based; settings: 5 μM, 2 hours
[4] = kidney injury model; Hye Khan et al. 2016; cited from earlier work
[5] = tested on: RAW264.7 murine macrophages; assay: LC-MS/MS oxylipin profiling of conditioned medium of debris-stimulated RAW264.7 macrophages; type: cell-based; settings: 5 μM, 2 hours; paclitaxel-generated ID8 debris
Procedure: (§1) Macrophages were treated with vehicle or PTUPB (1-10 μM) in Dulbecco's phosphate-buffered saline containing calcium and magnesium (PBS^+/+) (Lonza, Basel, Switzerland) and incubated for 2 hours at 37° C. Carboplatin- or paclitaxel-generated ID8 or OVCAR5 debris was added to murine or human macrophages, respectively, at a 1:4 (macrophage:dead cell body) ratio and incubated for 1 hour at 37° C. Next, plates were aspirated, macrophages were re-fed with serum-free medium, and incubated overnight at 37° C. The conditioned medium was collected the next day, centrifuged at 1100 rpm for 5 minutes to remove particulates, and stored at −20° C. until further analysis via cytokine array, ELISA, or LC-MS/MS. Collection of RAW264.7 murine macrophage conditioned medium was repeated using debris from three distinct collections for a total of three separate experiments. Collection of human monocyte-derived macrophage conditioned medium was repeated using peripheral blood monocytes from three different human donors and debris from three distinct collections for a total of three separate experiments. Collection of primary murine peritoneal macrophages was repeated using macrophages pooled from 5-10 C57BL/6 female mice and debris from two distinct collections for a total of two separate experiments.
Oxylipins in conditioned medium from 3 biological repeats were analyzed by LC-MS/MS as described previously (Yang et al., Anal. Chem. 81(19):8085-8093 (2009)). In brief, 1 mL of medium was loaded onto the conditioned Oasis HLB solid phase extraction cartridge (Waters, Milford, MA), washed with 5% methanol solution, and eluted with 0.5 mL of methanol and 1.5 mL of ethyl acetate consequently. The elution was concentrated and reconstituted in 50 μL of methanol solution before injection into the UPLC/MS/MS system (Agilent 1200 SL and Sciex 4000 Qtrap system). The optimized parameters for LC-MS/MS were described in detail previously (Yang et al., supra).

[6] = tested on: RAW 264.7 murine macrophages; assay: Inflammatory cytokine array of RAW264.7 macrophages stimulated with ethanol-generated MS-1 endothelial cell debris; type: cell-based; settings: 5 μM (combination 2.5 μM each), 2 hours pre-treatment
[7] = tested on: ID8 tumor cells; assay: MTT proliferation assay; type: cell-based, murine; settings: 1-10 μM, 24 hours
Procedure: Cell Proliferation Kit 1 (MTT) (Roche, Basel, Switzerland) was used according to recommended protocol to quantify proliferation. ID8 cells were plated at 5×10^3 cells/well in 96-well plates with DMEM supplemented with 1% FBS and 1% GPS and incubated overnight. Cells were re-fed with DMEM supplemented with 1% FBS and 1% GPS and vehicle or PTUPB (1, 5, or 10 μM). After a 24 hour incubation at 37° C., 10 μL of MTT reagent was added to each well and incubated for 4 hours at 37° C. Next, 100 μL of solubilizing solution was added to each well and incubated overnight at 37° C. VersaMax microplate reader (Molecular Devices, San Jose, CA) was used to quantify the results of the assay. Absorbance readings were normalized to vehicle. Experiments were performed three times with similar results.

[8] = tested on: RAW264.7 murine macrophages; assay: Cytokine array/ELISA of conditioned medium of RAW264.7 macrophages stimulated with chemotherapy-generated ID8 debris; type: cell-based
Procedure: as §1
In vivo cytokines (serum or ascites) or cytokines in conditioned medium of macrophages treated with PTUPB and exposed to paclitaxel- or carboplatin-generated debris, were assessed according to the protocols provided by Proteome Profiler Mouse Cytokine Array Kit Panel A, Proteome Profiler Mouse Angiogenesis Array Kit, or Proteome Profiler Human Cytokine Array Kit Panel A (R&D Systems, Inc., Minneapolis, MN). Array control allows for comparison between membranes. […]
For quantitation of pro-inflammatory cytokines, serum or conditioned medium from macrophages treated with PTUPB and stimulated with paclitaxel-generated ID8 debris or from paclitaxel-generated ID8 debris alone without macrophages was used according to the protocols provided in each ELISA kit (R&D Systems, Minneapolis, MN).

[9] = tested on: RAW264.7 murine macrophages; assay: Inflammatory cytokine array of RAW264.7 macrophages stimulated with ethanol-generated Hepa 1-6 debris; type: cell-based; settings: 5 μM (combination 5 μM each), 2 hours pre-treatment
Procedure: Inflammatory cytokine array of RAW264.7 murine macrophage conditioned media co-cultured with ethanol-generated murine liver (Hepa 1-6) tumor cell debris and pre-treated for 2 hours with vehicle, PTUPB (5 μM), Ome-21i (5 μM), or Ome-21i+Celecoxib (5 μM each).
An inflammatory cytokine array of conditioned media from RAW264.7 macrophages treated with vehicle, PTUPB (5 μM), Ome-21i (5 μM), or Ome-21i (5 μM) and Celecoxib (5 μM) for 2 hours stimulated with ethanol-generated Hepa 1-6 debris is shown in FIG. 17. “Cytokine storm” released by debris-stimulated macrophages is prevented by the dual COX-2/sEH inhibitor PTUPB or sEH inhibitor Ome-21i and COX-2 inhibitor celecoxib.

[10] = tested on: primary peritoneal murine macrophages; type: cell-based; settings: RFU, percent increase above vehicle-treated macrophages

NS(=O)(=O)c1ccc(-n2nc(CCCNC(=O)Nc3ccc(C(F)(F)F)cc3)cc2-c2ccccc2)cc1 [PTUPB, 4-(5-phenyl-3-{3-[3-(4-trifluoromethyl-phenyl)-ureido]propyl}-pyrazol-1-yl) benzenesulfonamide]
macrophage phagocytosis of aflatoxin B1-generated tumor cell debris, RAW264.7 [1]: able to stimulate macrophage phagocytosis; also recorded: stimulates macrophage phagocytosis
cytokine storm (inflammatory and angiogenic arrays) released by macrophages stimulated with gemcitabine-generated PancOH7 debris [2]: prevented
cytokine storm induced by aflatoxin B1-generated HepG2 debris in human monocyte-derived macrophages [3]: inhibited
release of pro-inflammatory cytokines, such as CCL2/MCP-1 [4]: suppressed
debris-stimulated surge of COX-derived lipid mediators PGF2α, PGD2, PGJ2 released by macrophages [5]: suppressed this debris-stimulated surge of bioactive lipids; also recorded: inhibits the surge
reduction of PGE2, THF diol, 15-HETE, 11-HETE, 5-HETE by debris-stimulated macrophages [5]: neutralized the reduction of these lipids; also recorded: neutralizing the reduction
release of 15-oxoETE by macrophages in the presence of debris [5]: suppressed the release of 15-oxoETE
cytokine storm by ethanol-generated endothelial cell (MS-1) debris [6]: inhibited
proliferation of ID8 tumor cells in vitro [7]: inhibited proliferation
debris-stimulated macrophage release of IL-1ra ([8]; FIGS. 4A, 4C, 5D, ID8 debris): suppressed debris-stimulated macrophage release of IL-1ra
pro-inflammatory cytokine surge (TNFα, MIP-2/CXCL2, MIP-1β/CCL4, CCL2/MCP-1, sICAM-1/CD54, G-CSF) by debris-stimulated macrophages ([8]; PTUPB 5 μM, 2 hours, paclitaxel- or carboplatin-generated ID8 debris): prevented the cytokine surge
angiogenic cytokine surge (serpin E1/PAI-1, osteopontin, MMP9, CCL2/MCP-1) by debris-stimulated macrophages ([8]; PTUPB 2.5 or 5 μM, 2 hours, paclitaxel- or carboplatin-generated ID8 debris): suppressed an angiogenic cytokine surge
cytokine storm released by macrophages stimulated with ethanol-generated Hepa 1-6 debris [9]: able to inhibit; also recorded: prevented
macrophage phagocytosis of aflatoxin B1-generated tumor cell debris, primary peritoneal murine macrophages [10]: stimulates macrophage phagocytosis
